The text below walks through data of US10994006B2, “Desensitizing mast cells by co-presentation of antigens with high affinity mast cell siglec ligands” (The Scripps Research Institute, priority 2016, dated 2021).

For one test, the system named is HL-60 cells. Nature of the test: HL-60 cell binding to arrayed compound. Further details: species or system human. To be noted: AML cell line expressing intermediate levels of hCD33. From the text:
This increase in avidity was further supported by the fact that HL-60 cells, an AML cell line expressing intermediate levels of hCD33, bound to compound 22.

For test [1], the target named is T1, hCD33 (Homo sapiens, UniProt P20138). Nature of the test: glycan microarray binding of hCD33-Fc. Further details: made in house.
Target sequence in this assay (P20138 18-259 limits assumed): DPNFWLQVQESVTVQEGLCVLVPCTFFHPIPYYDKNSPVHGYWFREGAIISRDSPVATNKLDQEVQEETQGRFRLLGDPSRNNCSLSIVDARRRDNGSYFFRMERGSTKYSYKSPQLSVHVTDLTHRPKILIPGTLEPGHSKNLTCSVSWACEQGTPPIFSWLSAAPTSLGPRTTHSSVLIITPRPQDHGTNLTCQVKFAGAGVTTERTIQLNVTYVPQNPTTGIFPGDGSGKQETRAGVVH
Test [2] addresses T1, hCD33. Nature of the test: solution-phase inhibition assay, flow cytometry: binding of fluorescently labelled hCD33 to ligand-coated beads. As for the experimental part: Glycan microarrays may provide only qualitative measures of avidity and selectivity. Therefore, the relative affinities of these compounds were analyzed using solution-phase inhibition assays where IC50 values were determined using a flow cytometry assay. The flow cytometry assay evaluated whether the compounds were able to prevent the binding of fluorescently labelled hCD33 to ligand-coated beads, and these values were used to determine the relative inhibitory potency (rIP) for each compound compared to the native sialoside (rIP=1).
Target sequence in this assay (P20138 18-364): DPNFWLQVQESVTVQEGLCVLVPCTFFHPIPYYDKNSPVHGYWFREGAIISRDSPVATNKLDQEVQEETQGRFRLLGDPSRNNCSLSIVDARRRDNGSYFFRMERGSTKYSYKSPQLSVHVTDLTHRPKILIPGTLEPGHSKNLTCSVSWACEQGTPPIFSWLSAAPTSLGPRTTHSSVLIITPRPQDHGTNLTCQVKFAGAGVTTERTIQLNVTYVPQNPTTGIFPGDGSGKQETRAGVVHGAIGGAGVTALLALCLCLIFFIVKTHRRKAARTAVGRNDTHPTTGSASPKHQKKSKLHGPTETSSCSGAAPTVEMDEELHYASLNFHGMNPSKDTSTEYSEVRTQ
(In flow cytometry, cells or beads pass a laser one at a time.)

The target in a further test is Siglec-8 (Homo sapiens, UniProt Q9NYZ4). To be noted: Bochner et al. 2005; Floyd et al. 2000; cited from earlier work.

“Also recorded” adds a separate entry of the source.

Sequence of Siglec-8 (Q9NYZ4 17-499): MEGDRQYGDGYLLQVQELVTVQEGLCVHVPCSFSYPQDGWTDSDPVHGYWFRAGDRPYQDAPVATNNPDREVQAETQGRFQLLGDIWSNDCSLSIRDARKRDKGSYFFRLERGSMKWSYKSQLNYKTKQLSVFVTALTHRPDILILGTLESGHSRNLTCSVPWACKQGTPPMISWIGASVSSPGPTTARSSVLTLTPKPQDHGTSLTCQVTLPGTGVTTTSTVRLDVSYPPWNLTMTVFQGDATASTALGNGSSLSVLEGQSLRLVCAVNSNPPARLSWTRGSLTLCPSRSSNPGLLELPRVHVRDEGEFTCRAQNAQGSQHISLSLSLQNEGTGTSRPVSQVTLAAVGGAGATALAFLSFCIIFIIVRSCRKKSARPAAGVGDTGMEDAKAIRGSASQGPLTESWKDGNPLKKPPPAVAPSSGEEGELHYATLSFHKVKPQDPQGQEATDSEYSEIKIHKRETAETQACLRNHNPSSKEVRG

For the molecule `Cc1cc(C(=O)NC[C@@H](O)[C@@H](O)C2O[C@@](OCC3O[C@@H](O[C@@H]4C(CO)O[C@@H](OCCN)C(O)[C@H]4O)C(O)[C@@H](O)[C@H]3O)(C(=O)O)C[C@@H](O)[C@H]2NC(=O)Cn2cc(C3CCCCC3)nn2)cc(C)c1O` (stereo partly shown) [Compound 22], the “binding of HL-60 cells to compound” value in the test with HL-60 cells is on record as “bound”. In addition, the “selectivity for hCD33 over hCD22 and mSn” value on hCD33 [1] (glycan microarray) was “showed increased selectivity for hCD33 over hCD22 and mSn”. In addition, the “binding (affinity/avidity, selectivity) to hCD33 on glycan array” value at hCD33 [1] (printed at 100 μM or 3 μM, hCD33-Fc pre-complexed with R-PE anti-human IgG) is given as “exhibited superior properties compared to the monosubstituted compounds; also recorded: exhibited higher avidity than both parent compounds”. Also, the “increase in affinity relative to the native sialoside” value at hCD33 [2] (hCD33) was 350 fold. The same molecule had an IC50 on hCD33 [2] (prevention of binding of fluorescently labelled hCD33 to ligand-coated beads) of 11 µM. Also, on hCD33 [2] (relative inhibitory potency compared to the native sialoside (rIP=1)), the rIP value was 351.
For “Neu5Acα2-3[6-SO4]Galβ1-4[Fucα1-3]GlcNAc [6′-sulfo-sLe^X]”, the “binding to Siglec-8” value on Siglec-8 is listed as “binds to”.

The IC50 is the midpoint of a concentration-inhibition curve.
